In patent US11401286B2 (Tetra Discovery Partners, LLC, priority 2012, dated 2022):
Counter-ions that a name gives are not always drawn.

Target: PDE4D7 (Homo sapiens (Human), UniProt Q08499)
Conditions: not given

PDE4D7, sequence (Q08499 other isoform, or with tags, fused parts or gaps): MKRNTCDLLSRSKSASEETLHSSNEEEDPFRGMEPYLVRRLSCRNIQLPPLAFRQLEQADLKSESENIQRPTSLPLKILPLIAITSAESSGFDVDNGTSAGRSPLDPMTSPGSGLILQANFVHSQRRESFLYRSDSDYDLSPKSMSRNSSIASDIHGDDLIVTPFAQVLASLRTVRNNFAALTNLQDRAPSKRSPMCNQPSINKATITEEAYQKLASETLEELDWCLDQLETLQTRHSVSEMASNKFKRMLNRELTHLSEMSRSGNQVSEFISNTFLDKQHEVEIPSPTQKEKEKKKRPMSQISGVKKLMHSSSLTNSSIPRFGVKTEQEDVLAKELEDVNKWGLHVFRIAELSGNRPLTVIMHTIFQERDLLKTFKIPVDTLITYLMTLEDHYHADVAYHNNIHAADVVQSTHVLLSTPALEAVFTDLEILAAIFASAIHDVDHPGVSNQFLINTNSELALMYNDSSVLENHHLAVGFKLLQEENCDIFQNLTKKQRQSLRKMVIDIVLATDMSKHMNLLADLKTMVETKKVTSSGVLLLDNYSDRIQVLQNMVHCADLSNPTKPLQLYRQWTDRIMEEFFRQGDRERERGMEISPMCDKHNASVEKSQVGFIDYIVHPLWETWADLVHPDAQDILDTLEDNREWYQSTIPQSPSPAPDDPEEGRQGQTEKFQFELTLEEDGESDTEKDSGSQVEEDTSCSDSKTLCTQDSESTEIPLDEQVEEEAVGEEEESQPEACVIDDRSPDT

Row | Compound | IC50 [nM]
1 | OCCc1ccc(Nc2ccnc(-c3cccc(Cl)c3)c2)cc1 [Example 84, 2-(4-((2-(3-Chlorophenyl)pyridin-4-yl)amino)phenyl)ethanol hydrochloride] | > 1000

Same assay, conditions: read-out: PDE4D7 IC50

Row | Compound | IC50 [nM]
2 | CCc1cc(Cc2ccc(CCO)cc2)nc(-c2cccc(Cl)c2)n1 [Example 67, 2-(4-((2-(3-Chlorophenyl)-6-ethylpyrimidin-4-yl)methyl)phenyl)ethanol] | < 1000
3 | CCc1nc(Nc2ccc(CO)cc2)nc(-c2cccc(Cl)c2)n1 [Example 80, (4-((4-(3-Chlorophenyl)-6-ethyl-1,3,5-triazin-2-yl)amino)phenyl)methanol] | < 1000
4 | CCc1nc(Nc2ccc(CCCO)cc2)nc(-c2cccc(Cl)c2)n1 [Example 81, 3-(4-((4-(3-Chlorophenyl)-6-ethyl-1,3,5-triazin-2-yl)amino)phenyl)propan-1-ol] | < 1000
5 | COC(=O)Cc1ccc(Nc2cc(-c3cccc(Cl)c3)nc3c2CCC3)cn1 [Example 89, Methyl 2-(5-((2-(3-chlorophenyl)-6,7-dihydro-5H-cyclopenta[b]pyridin-4-yl)amino)pyridin-2-yl)acetate hydrochloride] | > 1000
6 | OCCc1ccc(Nc2cc(-c3cccc(Cl)c3)nc3c2CCC3)nc1 [Example 92, 2-(6-((2-(3-Chlorophenyl)-6,7-dihydro-5H-cyclopenta[b]pyridin-4-yl)amino)pyridin-3-yl)ethanol hydrochloride] | > 1000
7 | CN(C)CCc1ccc(Nc2cc(-c3cccc(Cl)c3)nc3c2CCC3)cc1 [Example 105, 2-(3-Chlorophenyl)-N-(4-(2-(dimethylamino)ethyl)phenyl)-6,7-dihydro-5H-cyclopenta[b]pyridin-4-amine hydrochloride] | > 1000

Same assay, conditions: read-out: PDE4D7 IC50; PDE4D7 without asterisk

Row | Compound | IC50 [nM]
8 | CCc1nc(Nc2ccc(CC(=O)O)cc2)nc(-c2cccc(Cl)c2)n1 [Example 39, 2-(4-((4-(3-chlorophenyl)-6-ethyl-1,3,5-triazin-2-yl)amino)phenyl)acetic acid] | > 1000
9 | CCc1nc(Nc2ccc(C(=O)O)cc2)nc(-c2cccc(Cl)c2)n1 [Example 40, 4-((4-(3-chlorophenyl)-6-ethyl-1,3,5-triazin-2-yl)amino)benzoic acid] | < 1000
10 | O=C(O)c1ccc(Nc2nc(-c3cccc(Cl)c3)nc(C3CC3)n2)cc1 [Example 41, 4-((4-(3-chlorophenyl)-6-cyclopropyl-1,3,5-triazin-2-yl)amino)benzoic acid] | < 1000
11 | O=C(O)Cc1ccc(Oc2nc(-c3cccc(Cl)c3)nc(C3CC3)n2)cc1 [Example 43, 2-(4-((4-(3-chlorophenyl)-6-cyclopropyl-1,3,5-triazin-2-yl)oxy)phenyl)acetic acid] | > 1000
12 | CCc1nc(Nc2ccc(C#N)cc2)nc(-c2cccc(Cl)c2)n1 [Example 51, 4-(4-(3-chlorophenyl)-6-ethyl-1,3,5-triazin-2-ylamino)benzonitrile] | < 1000
13 | CCc1nc(Nc2ccc(CC#N)cc2)nc(-c2cccc(Cl)c2)n1 [Example 52, 2-(4-(4-(3-chlorophenyl)-6-ethyl-1,3,5-triazin-2-ylamino)phenyl)acetonitrile] | < 1000
14 | CCc1nc(Nc2ccc(CC(N)=O)cc2)nc(-c2cccc(Cl)c2)n1 [Example 57, 2-(4-(4-(3-chlorophenyl)-6-ethyl-1,3,5-triazin-2-ylamino)phenyl)acetamide] | < 1000
15 | CCc1nc(Nc2ccc(CCO)cc2)nc(-c2cccc(Cl)c2)n1 [Example 58, 2-(4-(4-(3-chlorophenyl)-6-ethyl-1,3,5-triazin-2-ylamino)phenyl)ethanol] | < 1000
16 | CCc1nc(Oc2ccc(CC(N)=O)cc2)nc(-c2cccc(Cl)c2)n1 [Example 61, 2-(4-((4-(3-chlorophenyl)-6-ethyl-1,3,5-triazin-2-yl)oxy)phenyl)acetamide] | > 1000
17 | CCc1nc(Nc2ccc(C(N)=O)cc2)nc(-c2cccc(Cl)c2)n1 [Example 62, 4-(4-(3-chlorophenyl)-6-ethyl-1,3,5-triazin-2-ylamino)benzamide] | < 1000
18 | CCc1cc(Cc2ccc(CC(N)=O)cc2)nc(-c2cccc(Cl)c2)n1 [Example 65, 2-(4-((2-(3-Chlorophenyl)-6-ethylpyrimidin-4-yl)methyl)phenyl)acetamide] | < 1000
19 | CCc1cc(Cc2ccc(CC(=O)O)cc2)nc(-c2cccc(Cl)c2)n1 [Example 66, 2-(4-((2-(3-chlorophenyl)-6-ethylpyrimidin-4-yl)methyl)phenyl)acetic acid] | > 1000
20 | NC(=O)Cc1ccc(Cc2nc(-c3cccc(Cl)c3)nc3c2CCC3)cc1 [Example 68, 2-(4-((2-(3-chlorophenyl)-6,7-dihydro-5H-cyclopenta[d]pyrimidin-4-yl)methyl)phenyl)acetamide] | > 1000
21 | Cc1ccc(Cc2nc(-c3cccc(Cl)c3)nc3c2CCC3)cc1 [Example 69, 2-(3-Chlorophenyl)-4-(4-methylbenzyl)-6,7-dihydro-5H-cyclopenta[d]pyrimidine] | > 1000
22 | Cc1ccc(C(=O)c2nc(-c3cccc(Cl)c3)nc3c2CCC3)cc1 [Example 70, (2-(3-Chlorophenyl)-6,7-dihydro-5H-cyclopenta[d]pyrimidin-4-yl)(p-tolyl)methanone] | > 1000
23 | CCc1c(C)nc(-c2ccc(Cl)s2)nc1Nc1ccc2c(c1)COB2O [Example 71, 2-(5-chloro-2-thienyl)-5-ethyl-N-(1-hydroxy-3H-2,1-benzoxaborol-5-yl)-6-methyl-pyrimidin-4-amine] | < 1000
24 | CCc1nc(Nc2ccc(CCOC)cc2)nc(-c2cccc(Cl)c2)n1 [Example 82, 4-(3-Chlorophenyl)-6-ethyl-N-(4-(2-methoxyethyl)phenyl)-1,3,5-triazin-2-amine] | < 1000

Row | Compound | IC50 [nM]
25 | NC(=O)Cc1ccc(Nc2ccnc(-c3cccc(Cl)c3)c2)cc1 [Example 83, 2-(4-((2-(3-Chlorophenyl)pyridin-4-yl)amino)phenyl)acetamide hydrochloride] | > 1000
26 | OCCCc1ccc(Nc2cc(-c3cccc(Cl)c3)nc3c2CCC3)cc1 [Example 85, 3-(4-((2-(3-Chlorophenyl)-6,7-dihydro-5H-cyclopenta[b]pyridin-4-yl)amino)phenyl)propan-1-ol hydrochloride] | < 1000
27 | COCCc1ccc(Nc2cc(-c3cccc(Cl)c3)nc3c2CCC3)cc1 [Example 86, 2-(3-Chlorophenyl)-N-(4-(2-methoxyethyl)phenyl)-6,7-dihydro-5H-cyclopenta[b]pyridin-4-amine hydrochloride] | > 1000
28 | COC(=O)c1ccc(Nc2cc(-c3cccc(Cl)c3)nc3c2CCC3)cc1 [Example 87, Methyl 4-((2-(3-chlorophenyl)-6,7-dihydro-5H-cyclopenta[b]pyridin-4-yl)amino)benzoatehydrochloride] | > 1000
29 | OCc1ccc(Nc2cc(-c3cccc(Cl)c3)nc3c2CCC3)cc1 [Example 88, (4-((2-(3-Chlorophenyl)-6,7-dihydro-5H-cyclopenta[b]pyridin-4-yl)amino)phenyl)methanol] | > 1000
30 | OC[C@H]1CC[C@H](Nc2cc(-c3cccc(Cl)c3)nc3c2CCC3)CC1 [Example 93, Trans-4-((2-(3-Chlorophenyl)-6,7-dihydro-5H-cyclopenta[b]pyridin-4-yl)amino)cyclohexyl-methanol hydrochloride] | > 1000
31 | NC(=O)Cc1ccc(Nc2cc(-c3cccc(Cl)c3)nc3c2CCC3)nc1 [Example 94, 2-(6-((2-(3-Chlorophenyl)-6,7-dihydro-5H-cyclopenta[b]pyridin-4-yl)amino)pyridin-3-yl)acetamide hydrochloride] | > 1000
32 | NC(=O)C[C@H]1CC[C@H](Nc2cc(-c3cccc(Cl)c3)nc3c2CCC3)CC1 [Example 96, Trans-2-(4-((2-(3-Chlorophenyl)-6,7-dihydro-5H-cyclopenta[b]pyridin-4-yl)amino)cyclohexyl)acetamide hydrochloride] | > 1000
33 | OCC[C@H]1CC[C@H](Nc2cc(-c3cccc(Cl)c3)nc3c2CCC3)CC1 [Example 97, Trans-2-(4-((2-(3-chlorophenyl)-6,7-dihydro-5H-cyclopenta[b]pyridin-4-yl)amino)cyclohexyl)ethanol hydrochloride] | > 1000
34 | CC(C)(O)Cc1ccc(Nc2cc(-c3cccc(Cl)c3)nc3c2CCC3)cc1 [Example 98, 1-(4-((2-(3-Chlorophenyl)-6,7-dihydro-5H-cyclopenta[b]pyridin-4-yl)amino)phenyl)-2-methylpropan-2-ol] | > 1000
35 | COC(=O)Cc1cccc(Nc2cc(-c3cccc(Cl)c3)nc3c2CCC3)c1 [Example 100, Methyl 2-(3-((2-(3-chlorophenyl)-6,7-dihydro-5H-cyclopenta[b]pyridin-4-yl)amino)phenyl)acetate hydrochloride] | > 1000
36 | NC(=O)Cc1cccc(Nc2cc(-c3cccc(Cl)c3)nc3c2CCC3)c1 [Example 101, 2-(3-((2-(3-Chlorophenyl)-6,7-dihydro-5H-cyclopenta[b]pyridin-4-yl)amino)phenyl)acetamide hydrochloride] | > 1000
37 | OCCc1cccc(Nc2cc(-c3cccc(Cl)c3)nc3c2CCC3)c1 [Example 102, 2-(3-((2-(3-Chlorophenyl)-6,7-dihydro-5H-cyclopenta[b]pyridin-4-yl)amino)phenyl)ethanol hydrochloride] | > 1000
38 | NC(=O)Cc1ccc(Nc2cc(-c3cccc(Cl)c3)[n+]([O-])c3c2CCC3)cc1 [Example 103, 4-((4-(2-Amino-2-oxoethyl)phenyl)amino)-2-(3-chlorophenyl)-6,7-dihydro-5H-cyclopenta[b]pyridine 1-oxide] | > 1000
39 | CC(O)Cc1ccc(Nc2cc(-c3cccc(Cl)c3)nc3c2CCC3)cc1 (centres unmarked) [Example 104, 1-(4-((2-(3-Chlorophenyl)-6,7-dihydro-5H-cyclopenta[b]pyridin-4-yl)amino)phenyl)propan-2-ol] | > 1000
40 | C[C@@H](O)Cc1ccc(Nc2cc(-c3cccc(Cl)c3)nc3c2CCC3)cc1 [Example 106, (R)-1-(4-((2-(3-Chlorophenyl)-6,7-dihydro-5H-cyclopenta[b]pyridin-4-yl)amino)phenyl)propan-2-ol] | > 1000
41 | C[C@H](O)Cc1ccc(Nc2cc(-c3cccc(Cl)c3)nc3c2CCC3)cc1 [Example 107, (S)-1-(4-((2-(3-Chlorophenyl)-6,7-dihydro-5H-cyclopenta[b]pyridin-4-yl)amino)phenyl)propan-2-ol] | > 1000
